The values that follow come from patent US8741879B2, “Petroleum jelly-free unguent compositions comprising vitamin D compounds and optionally steroidal anti-inflammatory agents” (Galderma S.A., priority 2006, dated 2014).

Data set [1] in a line: Stability of calcitriol 30 ppm solution in absolute ethanol with 0.02% BHT (HPLC assay against a reference substance). The class given is physicochemical. The settings on record: 30 ppm in absolute ethanol. The text has this:
b) Stability of Calcitriol in Ethanol: Calcitriol solution 30 ppm in qs 100% absolute ethanol in the presence of 0.02% BHT. Assay technique by HPLC against a reference substance. The starting time (T0) is considered to be 100%.

The nature of data set [2]: Solubility of clobetasol propionate in solvents (HPLC). The class given is physicochemical. The text has this: a) Solubility of Clobetasol Propionate:

For the compound `C=C1/C(=C\C=C2/CCC[C@]3(C)[C@@H]([C@H](C)CCCC(C)(C)O)CC[C@@H]23)C[C@@H](O)C[C@@H]1O` [Calcitriol, calcitriol], the “Calcitriol remaining (T0 = 100%)” value in data set [1] (+4° C., T1week) is listed as 97.7%; in data set [1] (+4° C., T2weeks) it was 98.6%; in data set [1] (+4° C., T3weeks), 98.1%; in data set [1] (+4° C., T4weeks) it was 97.7%; in data set [1] (+30° C., T2weeks), 93.4%; in data set [1] (+30° C., T4weeks), 93.0%. Also, the “Calcitriol remaining (T0 = 100%)” value is 100.9% in data set [1] (−18° C., T1week); 100.5% in data set [1] (−18° C., T2weeks); 99.5% in data set [1] (−18° C., T3weeks); 99.5% in data set [1] (−18° C., T4weeks).

On to `CCC(=O)O[C@]1(C(=O)CCl)[C@@H](C)C[C@H]2[C@@H]3CCC4=CC(=O)C=C[C@]4(C)[C@@]3(F)[C@@H](O)C[C@@]21C` [Clobetasol Propionate, clobetasol 17-propionate], for which the Solubility came to 50.40 mg/g in data set [2] (in Ethanol 96), 9.10 mg/g in data set [2] (in Propylene glycol) and 120.70 mg/g in data set [2] (in Transcutol).
